Series [1] concerns Plasmodium berghei. Kind of series: Antimalarial activity against Plasmodium berghei ANKA infected in mouse assessed as reduction in parasitemia by measuring effective dose at administrated orally for 4 days by flow cytometry analysis. In kind it is functional. As to conditions: 96 h, route po, time 4 day.
Series [2] concerns Plasmodium falciparum. In words: Antiplasmodial activity against mixture of chloroquine resistant Plasmodium falciparum RKL 303-chloroquine sensitive Plasmodium falciparum 3D7 infected in human erythrocyte assessed as inhibition of parasite growth incubated for 48 hrs by Giemsa staining based microscopic analysis. In kind it is functional, organism-based.
Series [3] deals with Plasmodium vinckei. In words: Antimalarial activity against Plasmodium vinckei infected in Swiss OF1 mouse assessed as reduction in parasite growth by measuring its effective dose administrated orally for four consecutive days and measured on day 5 by Giemsa staining based microscopic analysis. In kind it is functional. As to conditions: 120 h, route po, time 5 day.
The test system of series [4] is Plasmodium vinckei. In words: Antimalarial activity against Plasmodium vinckei infected in Swiss OF1 mouse assessed as reduction of parasitaemia at 10 mg/kg,po administrated for four consecutive days and measured on day 5 by Giemsa staining based microscopic analysis. In kind it is functional. As to conditions: time 5 day. The arrangement: scale not given: the % may be the effect or the level left.

Series [5] has as its system Plasmodium falciparum. In words: Antiplasmodial activity against Plasmodium falciparum 3D7 assessed as inhibition of parasite growth incubated for 72 hrs by LDH assay based spectrofluorometric analysis. In kind it is functional, organism-based. Particulars: 3D7, 72 h.
Series [6] concerns Plasmodium falciparum. Kind of series: Antiplasmodial activity against chloroquine resistant Plasmodium falciparum Dd2 assessed as inhibition of parasite growth incubated for 72 hrs by LDH assay based spectrofluorometric analysis. As to conditions: Dd2, 72 h. In kind it is functional, organism-based.
The test system of series [7] is Plasmodium falciparum. Kind of series: Additive antiplasmodial activity against Plasmodium falciparum NF54 gametocytes infected in human erythrocyte assessed as inhibition of parasite growth by measuring minimum inhibitory concentration incubated for 48 hrs in presence of mefloquine by SYBR Green dye based fluorescence assay. The class given is functional.
Series [8] concerns Plasmodium falciparum. In words: Antiplasmodial activity against Plasmodium falciparum NF54 gametocytes infected in human erythrocyte assessed as inhibition of parasite growthVincubated for 48 hrs by SYBR Green dye based fluorescence assay. In kind it is functional, organism-based.
Series [9] concerns Plasmodium falciparum. Kind of series: Additive antiplasmodial activity against Plasmodium falciparum NF54 gametocytes infected in human erythrocyte assessed as inhibition of parasite growth by measuring minimum inhibitory concentration incubated for 48 hrs in presence of chloroquine by SYBR Green dye based fluorescence assay. The class given is functional.
Series [10] concerns Plasmodium falciparum. In words: Additive antiplasmodial activity against Plasmodium falciparum NF54 gametocytes infected in human erythrocyte assessed as inhibition of parasite growth by measuring minimum inhibitory concentration incubated for 48 hrs in presence of lumefantrine by SYBR Green dye based fluorescence assay. In kind it is functional.
Series [11] has as its target T1, Falcipain 2 (Plasmodium falciparum, UniProt Q9N6S8).
T1 sequence (Q9N6S8 whole entry): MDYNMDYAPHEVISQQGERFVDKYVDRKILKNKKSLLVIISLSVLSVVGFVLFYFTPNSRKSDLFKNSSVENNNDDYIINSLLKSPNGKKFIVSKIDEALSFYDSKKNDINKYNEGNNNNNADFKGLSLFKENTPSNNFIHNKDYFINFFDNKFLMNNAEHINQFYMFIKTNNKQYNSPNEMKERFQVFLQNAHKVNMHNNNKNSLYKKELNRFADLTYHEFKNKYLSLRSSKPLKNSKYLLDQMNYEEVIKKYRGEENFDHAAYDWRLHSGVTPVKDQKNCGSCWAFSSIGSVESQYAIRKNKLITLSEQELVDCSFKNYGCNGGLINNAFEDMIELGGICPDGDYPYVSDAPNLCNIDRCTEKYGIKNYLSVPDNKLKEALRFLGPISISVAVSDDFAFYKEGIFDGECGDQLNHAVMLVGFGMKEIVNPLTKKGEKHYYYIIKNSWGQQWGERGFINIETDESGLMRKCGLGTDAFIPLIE
Kind of series: Inhibition of Plasmodium falciparum recombinant His-tagged falcipain-2 expressed in Escherichia coli assessed as inhibition constant using Cbz-Phe-Arg-AMC as substrate by fluorescence spectrophotometer assay.

Series [12] concerns Plasmodium falciparum. In words: Antimalarial activity against Plasmodium falciparum FCBR assessed as inhibition of parasite growth by SYTOX Green dye based high-throughput assay. In kind it is functional, organism-based.
Series [13] deals with Plasmodium falciparum. Kind of series: Antiplasmodial activity against chloroquine resistant Plasmodium falciparum K1 infected in human RBC assessed as inhibition of parasite growth incubated for 48 hrs by optical microscopy analysis. The class given is functional, organism-based. Particulars: K1, Erythrocyte.
The test system of series [14] is Plasmodium falciparum. In words: Antiplasmodial activity against chloroquine resistant Plasmodium falciparum W2 assessed as inhibition of parasite growth incubated for 48 hrs by SYBR green I dye based fluorescence assay. The class given is functional, organism-based. Particulars: W2, 48 h.
Series [15] in a line: Selectivity index, ratio of CC50 for cytotoxicity against human HepG2 cells by MTT assay to IC50 for antiplasmodial activity against chloroquine resistant Plasmodium falciparum W2 by SYBR green I dye based fluorescence assay. In kind it is toxicity, cell-based. Particulars: read-out: Ratio CC50/IC50.
Series [16] concerns Plasmodium falciparum. In words: Antiplasmodial activity against chloroquine sensitive Plasmodium falciparum 3D7 assessed as inhibition of parasite growth incubated for 48 hrs by SYBR green I dye based fluorescence assay. The class given is functional, organism-based. Particulars: 3D7, 48 h.
Series [17] can be described thus: Selectivity index, ratio of CC50 for cytotoxicity against human HepG2 cells by MTT assay to IC50 for antiplasmodial activity against chloroquine sensitive Plasmodium falciparum 3D7 by SYBR green I dye based fluorescence assay. Particulars: read-out: Ratio CC50/IC50. In kind it is toxicity, cell-based.
The test system of series [18] is Plasmodium falciparum. In words: Antiplasmodial activity against Plasmodium falciparum W2 assessed as inhibition of parasite growth incubated for 72 hrs by SYBR Green I dye based fluorescence assay. In kind it is functional, organism-based. As to conditions: W2, 72 h.
In series [19] the test system is Plasmodium falciparum. In words: Antiplasmodial activity against Plasmodium falciparum TM91-C23 assessed as inhibition of parasite growth incubated for 72 hrs by SYBR Green I dye based fluorescence assay. In kind it is functional, organism-based. As to conditions: TM91-C23, 72 h.
The subject of series [20] is Plasmodium falciparum. In words: Antiplasmodial activity against Plasmodium falciparum TM90-C2A assessed as inhibition of parasite growth incubated for 72 hrs by SYBR Green I dye based fluorescence assay. The class given is functional, organism-based.
Series [21] deals with Plasmodium falciparum. In words: Antiplasmodial activity against Plasmodium falciparum TM90-C2B assessed as inhibition of parasite growth incubated for 72 hrs by SYBR Green I dye based fluorescence assay. In kind it is functional, organism-based.
The subject of series [22] is Plasmodium berghei. In words: Antimalarial activity against Plasmodium berghei ANKA infected in Swiss albino mouse assessed as reduction in parasitemia at 50 micromol/kg,po administrated for 4 days by Giemsa staining based microscopic analysis. The class given is functional. More on the design: scale not given: the % may be the effect or the level left. As to conditions: dose 50 µmol/kg, time 4 day.

For series [23], the system named is Plasmodium falciparum. Kind of series: Antiplasmodial activity against chloroquine resistant Plasmodium falciparum RKL9 infected in human erythrocyte assessed as inhibition of parasite growth incubated for 24 hrs by two fold serial dilution assay. The class given is functional, organism-based.
Series [24] can be described thus: Retention time of the compound by HPLC-MS analysis. In kind it is physicochemical.
Series [25] deals with Plasmodium falciparum. Kind of series: Antiplasmodial activity against Plasmodium falciparum K1 infected in human erythrocyte assessed as inhibition of parasite growth incubated for 72 hrs by [3H]-hypoxanthine incorporation based liquid scintillation counting method. In kind it is functional, organism-based.

From ChEMBL document CHEMBL5352391, “New structural classes of antimalarials” (Eur J Med Chem, 2022) come the findings set out here.

pIC50, pKi: −log10 of the molar value. ≈ marks a conversion by molar mass, not a printed value.

Consider `CC(=O)N1CCN(c2ccc(CN(C(=O)/C=C/c3ccc(C(F)(F)F)cc3)[C@@H](Cc3ccccc3)C(=O)N3CCN(Cc4ccc(N(C)CCO)cc4)CC3)cc2)CC1`, for which the ED90 in [1] was determined as 54.4 mg/kg.
Take `C=CC(C)(C)c1cc(/C=C/C(=O)c2ccc(O)cc2)c(OC)cc1O` [LICOAGROCHACONE A]: the IC50 in [2] was found to be 1.43 µg/mL (≈ 4.23 µM).
Take `CO/N=C(/N)c1ccc(-n2cc(-c3cccc(/C(N)=N\OC)c3)nn2)cc1`: the median effective dose (ED50) in series [3] was found to be 5 mg/kg. The Activity in series [4] came to 100%.
Take `C/C1=C\[C@H](C)[C@@H](O)C[C@@H](O)/C(C)=C/[C@H](C)C[C@@H](C)CC[C@@H]([C@@H](C)C(=O)O)OC(=O)[C@@H](C)C1`: the pIC50 is 6.89 in [5] and 6.74 in series [6].
With `C/C1=C\[C@H](C)CC[C@@H](O)/C(C)=C/[C@H](C)C[C@@H](C)CC[C@@H]([C@@H](C)C(=O)O)OC(=O)[C@@H](C)C1`, the pIC50 is 7.89 in [5] and 7.49 in series [6].
Turning to `C[n+]1c2ccccc2cc2[n-]c3ccccc3c21` [CRYPTOLEPINE], the MIC50 was found to be 4.18 nM in series [7], 1.46 nM in series [9] and 1.02 nM in series [10]. The pIC50 in series [8] is 7.71.
Regarding `N=C(NC(=O)OCc1ccccc1)NC(=O)c1ccc(C(=O)NCc2ccc(NC(=O)OCc3ccccc3)cc2)o1`, in [11], the negative logarithm of the Ki (pKi) was 5.97. For the same compound, the pIC50 in series [12] is 5.97.
For the compound `c1ccc(CCC2(CCc3ccccc3)OOC(CCc3ccccc3)(CCc3ccccc3)OO2)cc1`, the negative logarithm of the IC50 (pIC50) in series [13] is 5.80.
For `c1cc(CNCCCN2CCN(CCCNCc3cccc(-c4nc5ccccc5n5cccc45)c3)CC2)cc(-c2nc3ccccc3n3cccc23)c1`, the pIC50 in series [14] was 7.30; in series [16], 6.43. The selectivity ratio in series [15] is 40.6.
In the case of `COc1ccc2c(c1)nc(-c1cccc(CNCCCN3CCN(CCCNCc4cccc(-c5nc6ccc(OC)cc6n6cccc56)c4)CC3)c1)c1cccn12`, the pIC50 was 6.77 in series [14] and 7.40 in [16]. Also, the selectivity ratio in series [17] was 39.2.
Regarding `C/C1=C\C(=O)O[C@@H](C(C)(C)C)CCC[C@@H](O)CCC[C@H](O)CCC[C@H](O)CCC[C@@H](O)C[C@H](O)C[C@@H](O)CCC[C@H](O)CCC[C@H](O)C[C@@H](O)CCCCC1`, the negative-log IC50 (pIC50) in series [18] is 6.85; in [19], 6.57; in series [20], 7.10; in series [21], 7.05.
With `COc1ccc(/C=C/C(=O)c2ccc(-n3cnc4ccccc43)cc2)c(OC)c1`, the IC50 in series [2] is 1.1 µg/mL (≈ 2.86 µM).
Take `O=C(O)c1cn(-c2ccc(Cl)cc2)nc1-c1ccccc1`: the Activity in series [22] was found to be 97%. Further, in series [23], the pIC50 was 7.48.
`C=C(C)[C@H](O)[C@@H](O)C[C@@H](C)C1=C2C[C@H](O)[C@H]3[C@@]4(C)CCC(=O)C(C)(C)[C@@H]4CC[C@]3(C)[C@@]2(C)CC1` came in with a Retention_time in series [24] of 23 min. For the same compound, the pIC50 in series [25] is 5.16.
